Test results published in patent US12252524B2, “GIP/GLP1 co-agonist compounds” (Eli Lilly and Company, priority 2018, dated 2025).
Numbered stars: 1 amine (or outer) side, 2 acyl side, 3 side chain; on linkers, the order of the positions; unused ones are H or OH. Square brackets hold non-standard residues; d marks the D form. Side chains are listed from the residue outwards. Peptide text beside a SMILES is read from it. * marks the point of attachment. C20 diacid = O=C(O)CCCCCCCCCCCCCCCCCCC(=O)*; C18 diacid = O=C(O)CCCCCCCCCCCCCCCCC(=O)*; αMePhe(2-F) = C[C@](N)(Cc1ccccc1F)C(=O)O; γGlu = O=C(O)[C@H](CCC(=O)[*:2])N[*:1]; αMeY = C[C@](N)(Cc1ccc(O)cc1)C(=O)O; αMeF = C[C@](N)(Cc1ccccc1)C(=O)O; αMeL = CC(C)C[C@](C)(N)C(=O)O; AEEA = NCCOCCOCC(=O)O; Aib = CC(C)(N)C(=O)O

How the values were obtained:
[1] = molecular target: T1, gastric inhibitory peptide receptor (GIPR) (Homo sapiens, UniProt P48546); experiment: cAMP pharmacological functional assay in presence of casein, hGIPR; format: cell-based; conditions: HEK293 cells expressing hGIPR, 0.1% Casein, geometric mean; read-out: hGIPR cAMP Rel EC50 nM (SEM, n)
T1 sequence (P48546 22-466): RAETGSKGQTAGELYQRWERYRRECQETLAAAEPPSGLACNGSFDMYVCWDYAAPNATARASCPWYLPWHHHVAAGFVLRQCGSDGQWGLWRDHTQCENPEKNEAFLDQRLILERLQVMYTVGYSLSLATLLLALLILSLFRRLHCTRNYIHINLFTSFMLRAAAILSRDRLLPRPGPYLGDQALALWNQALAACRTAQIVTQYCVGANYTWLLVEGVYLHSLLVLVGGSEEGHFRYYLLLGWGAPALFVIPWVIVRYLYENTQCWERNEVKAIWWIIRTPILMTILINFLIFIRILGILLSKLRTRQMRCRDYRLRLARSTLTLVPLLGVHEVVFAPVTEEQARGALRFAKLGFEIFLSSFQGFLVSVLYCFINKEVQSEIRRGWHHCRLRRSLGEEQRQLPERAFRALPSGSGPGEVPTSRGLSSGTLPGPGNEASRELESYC

human Gcg receptor = molecular target: T2, human Gcg receptor (Homo sapiens, UniProt P47871); experiment: [125I]-Glucagon binding (SPA), human Gcg receptor; conditions: read-out: hGLcgR Ki, nM (SEM, n)
T2 construct: expressed in transfected cells; crude membranes
Summary of the method: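 Cell pellets were lysed in hypotonic Tris buffer, pH 7.5, homogenized, and spun at low then high speed to give crude membranes. Ki was derived from the fitted IC50.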

human GIP receptor = molecular target: T3, human GIP receptor (Homo sapiens, UniProt P48546); experiment: [125I]-GIP binding (SPA), human GIP receptor; conditions: read-out: hGIPR Ki, nM (SEM, n)
T3 construct: expressed in transfected cells; crude membranes
T3 sequence (P48546 22-466): T1 sequence (P48546 22-466)

human GLP-1R = human GLP-1R (Homo sapiens, UniProt P43220); experiment: [125I]-GLP-1 binding (SPA), human GLP-1 receptor; design: expressed in transfected cells; crude membranes; conditions: read-out: hGLP1R Ki, (nM) (SEM, n)
Summary of the method: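 Ki values are geometric means with SEM over independent replicates on different days, derived from IC50s fitted by four-parameter nonlinear regression. The assay used crude cell membranes in HEPES buffer, pH 7.4, containing CaCl2, MgCl2, bacitracin and TWEEN-20.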

[2] = molecular target: human GLP-1 receptor (GLP-1R) (Homo sapiens, UniProt P43220); experiment: cAMP pharmacological functional assay in presence of casein, hGLP-1R; format: cell-based; conditions: HEK293 cells expressing hGLP-1R, 0.1% Casein, geometric mean; read-out: hGLP1R cAMP Rel EC50 nM (SEM, n)
Sequence of human GLP-1 receptor (GLP-1R) (P43220 24-463): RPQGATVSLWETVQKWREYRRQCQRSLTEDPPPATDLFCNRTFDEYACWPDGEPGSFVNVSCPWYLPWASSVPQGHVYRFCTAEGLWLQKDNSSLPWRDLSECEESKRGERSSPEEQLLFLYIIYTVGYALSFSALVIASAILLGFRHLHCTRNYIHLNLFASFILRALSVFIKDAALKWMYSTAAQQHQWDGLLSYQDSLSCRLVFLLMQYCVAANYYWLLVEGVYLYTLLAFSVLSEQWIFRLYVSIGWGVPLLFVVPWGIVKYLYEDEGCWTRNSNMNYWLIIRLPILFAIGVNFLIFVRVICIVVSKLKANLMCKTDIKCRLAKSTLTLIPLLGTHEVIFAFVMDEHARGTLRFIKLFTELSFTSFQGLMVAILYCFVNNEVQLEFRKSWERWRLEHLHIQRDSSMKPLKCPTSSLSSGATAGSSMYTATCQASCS

T2 sequence (P47871 26-477): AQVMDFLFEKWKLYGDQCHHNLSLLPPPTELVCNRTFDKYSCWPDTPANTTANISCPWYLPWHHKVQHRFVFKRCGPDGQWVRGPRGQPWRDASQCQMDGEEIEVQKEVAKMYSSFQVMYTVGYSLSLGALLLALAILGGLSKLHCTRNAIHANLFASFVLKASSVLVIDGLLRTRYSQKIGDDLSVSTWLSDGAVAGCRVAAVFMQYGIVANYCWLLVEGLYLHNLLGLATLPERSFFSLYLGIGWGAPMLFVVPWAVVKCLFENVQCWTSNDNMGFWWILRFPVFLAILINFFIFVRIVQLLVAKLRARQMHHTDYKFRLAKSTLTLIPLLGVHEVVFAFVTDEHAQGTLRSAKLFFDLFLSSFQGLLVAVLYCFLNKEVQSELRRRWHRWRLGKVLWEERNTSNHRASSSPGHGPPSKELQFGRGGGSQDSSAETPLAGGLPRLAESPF
Sequence of human GLP-1R (P43220 24-463): as the sequence (P43220 24-463) above

CC[C@H](C)[C@H](NC(=O)[C@H](CC(C)C)NC(=O)[C@H](Cc1ccc(O)cc1)NC(=O)[C@@H](CCC(=O)O)NC(=O)[C@@H](NC(=O)[C@H](Cc1ccccc1)NC(=O)[C@H](CCC(=O)O)NC(=O)C(C)(C)NC(=O)[C@H](CCC(N)=O)NC(=O)[C@H](C)NC(=O)[C@H](CCCCNC(=O)COCCOCCNC(=O)COCCOCCNC(=O)CC[C@H](NC(=O)CCCCCCCCCCCCCCCCC(=O)O)C(=O)O)NC(=O)[C@H](CCC(=O)O)NC(=O)[C@H](CC(=O)O)NC(=O)[C@H](CC(C)C)NC(=O)[C@](C)(CC(C)C)NC(=O)[C@@H](NC(=O)[C@H](CO)NC(=O)[C@H](Cc1ccc(O)cc1)NC(=O)[C@H](CC(=O)O)NC(=O)[C@H](CO)NC(=O)[C@@H](NC(=O)[C@](C)(Cc1ccccc1F)NC(=O)[C@@H](NC(=O)CNC(=O)[C@H](CCC(=O)O)NC(=O)C(C)(C)NC(=O)[C@@H](N)Cc1ccc(O)cc1)[C@@H](C)O)[C@@H](C)O)[C@@H](C)CC)[C@@H](C)CC)C(=O)N[C@@H](CCC(=O)O)C(=O)NCC(=O)NCC(=O)N1CCC[C@H]1C(=O)N[C@@H](CO)C(=O)N[C@@H](CO)C(=O)NCC(=O)N[C@@H](C)C(=O)N1CCC[C@H]1C(=O)N1CCC[C@H]1C(=O)N1CCC[C@H]1C(=O)N[C@@H](CO)C(N)=O [Example 221] (H-Y[Aib]EGT[αMePhe(2-F)]TSDYSI[αMeL]LDEK([AEEA-AEEA-γGlu-C18 diacid])AQ[Aib]EFI[dE]YLIEGGPSSGAPPPS-NH2)
EC50 [1]: 0.0445 nM
Ki (human Gcg receptor): 154 nM
Ki (human GIP receptor): 0.0414 nM
Ki (human GLP-1R): 1.77 nM
EC50 [2]: 0.057 nM

CC[C@H](C)[C@H](NC(=O)[C@H](CC(C)C)NC(=O)[C@](C)(Cc1ccc(O)cc1)NC(=O)[C@@H](CCC(=O)O)NC(=O)[C@@H](NC(=O)[C@H](Cc1ccccc1)NC(=O)[C@H](CCC(=O)O)NC(=O)C(C)(C)NC(=O)[C@H](CCC(N)=O)NC(=O)[C@H](C)NC(=O)[C@H](CCCCNC(=O)COCCOCCNC(=O)COCCOCCNC(=O)CC[C@H](NC(=O)CCCCCCCCCCCCCCCCCCC(=O)O)C(=O)O)NC(=O)[C@H](CCC(=O)O)NC(=O)[C@H](CC(=O)O)NC(=O)[C@H](CC(C)C)NC(=O)[C@](C)(CC(C)C)NC(=O)[C@@H](NC(=O)[C@H](CO)NC(=O)[C@H](Cc1ccc(O)cc1)NC(=O)[C@H](CC(=O)O)NC(=O)[C@H](CO)NC(=O)[C@@H](NC(=O)[C@](C)(Cc1ccccc1F)NC(=O)[C@@H](NC(=O)CNC(=O)[C@H](CCC(=O)O)NC(=O)C(C)(C)NC(=O)[C@@H](N)Cc1ccc(O)cc1)[C@@H](C)O)[C@@H](C)O)[C@@H](C)CC)[C@@H](C)CC)C(=O)N[C@@H](CCC(=O)O)C(=O)NCC(=O)NCC(=O)N1CCC[C@H]1C(=O)N[C@@H](CO)C(=O)N[C@@H](CO)C(=O)NCC(=O)N[C@@H](C)C(=O)N1CCC[C@H]1C(=O)N1CCC[C@H]1C(=O)N1CCC[C@H]1C(=O)N[C@@H](CO)C(N)=O [Example 222] (H-Y[Aib]EGT[αMePhe(2-F)]TSDYSI[αMeL]LDEK([AEEA-AEEA-γGlu-C20 diacid])AQ[Aib]EFI[dE][αMeY]LIEGGPSSGAPPPS-NH2; N-terminus assumed)
EC50 [1]: 0.0306 nM
Ki (human Gcg receptor): 71.3 nM
Ki (human GIP receptor): 0.0495 nM
Ki (human GLP-1R): 3.59 nM
EC50 [2]: 0.0248 nM

CC[C@H](C)[C@H](NC(=O)[C@H](CC(C)C)NC(=O)[C@](C)(Cc1ccc(O)cc1)NC(=O)[C@H](CCC(=O)O)NC(=O)[C@@H](NC(=O)[C@H](Cc1ccccc1)NC(=O)[C@H](CCC(=O)O)NC(=O)C(C)(C)NC(=O)[C@H](CCC(N)=O)NC(=O)[C@H](C)NC(=O)[C@H](CCCCNC(=O)COCCOCCNC(=O)COCCOCCNC(=O)CC[C@H](NC(=O)CCCCCCCCCCCCCCCCCCC(=O)O)C(=O)O)NC(=O)[C@H](CCC(=O)O)NC(=O)[C@H](CC(=O)O)NC(=O)[C@H](CC(C)C)NC(=O)[C@](C)(CC(C)C)NC(=O)[C@@H](NC(=O)[C@H](CO)NC(=O)[C@H](Cc1ccc(O)cc1)NC(=O)[C@H](CC(=O)O)NC(=O)[C@H](CO)NC(=O)[C@@H](NC(=O)[C@](C)(Cc1ccccc1F)NC(=O)[C@@H](NC(=O)CNC(=O)[C@H](CCC(=O)O)NC(=O)C(C)(C)NC(=O)[C@@H](N)Cc1ccc(O)cc1)[C@@H](C)O)[C@@H](C)O)[C@@H](C)CC)[C@@H](C)CC)C(=O)N[C@@H](CCC(=O)O)C(=O)NCC(=O)NCC(=O)N1CCC[C@H]1C(=O)N[C@@H](CO)C(=O)N[C@@H](CO)C(=O)NCC(=O)N[C@@H](C)C(=O)N1CCC[C@H]1C(=O)N1CCC[C@H]1C(=O)N1CCC[C@H]1C(=O)N[C@@H](CO)C(N)=O [Example 223] (H-Y[Aib]EGT[αMePhe(2-F)]TSDYSI[αMeL]LDEK([AEEA-AEEA-γGlu-C20 diacid])AQ[Aib]EFIE[αMeY]LIEGGPSSGAPPPS-NH2)
EC50 [1]: 0.067 nM
Ki (human Gcg receptor): 46.5 nM
Ki (human GIP receptor): 0.0921 nM
Ki (human GLP-1R): 5.62 nM
EC50 [2]: 0.0363 nM

CC[C@H](C)[C@H](NC(=O)[C@H](CC(C)C)NC(=O)[C@H](Cc1ccc(O)cc1)NC(=O)[C@@H](CCC(=O)O)NC(=O)[C@@H](NC(=O)[C@H](Cc1ccccc1)NC(=O)[C@H](CCC(=O)O)NC(=O)C(C)(C)NC(=O)[C@H](CCC(N)=O)NC(=O)[C@H](C)NC(=O)[C@H](CCCCNC(=O)COCCOCCNC(=O)COCCOCCNC(=O)CC[C@H](NC(=O)CCCCCCCCCCCCCCCCCCC(=O)O)C(=O)O)NC(=O)[C@H](CCC(=O)O)NC(=O)[C@H](CC(=O)O)NC(=O)[C@H](CC(C)C)NC(=O)C(C)(C)NC(=O)[C@@H](NC(=O)[C@H](CO)NC(=O)[C@H](Cc1ccc(O)cc1)NC(=O)[C@H](CC(=O)O)NC(=O)[C@H](CO)NC(=O)[C@@H](NC(=O)[C@](C)(Cc1ccccc1F)NC(=O)[C@@H](NC(=O)CNC(=O)[C@H](CCC(=O)O)NC(=O)C(C)(C)NC(=O)[C@@H](N)Cc1ccc(O)cc1)[C@@H](C)O)[C@@H](C)O)[C@@H](C)CC)[C@@H](C)CC)C(=O)N[C@@H](CCC(=O)O)C(=O)NCC(=O)NCC(=O)N1CCC[C@H]1C(=O)N[C@@H](CO)C(=O)N[C@@H](CO)C(=O)NCC(=O)N[C@@H](C)C(=O)N1CCC[C@H]1C(=O)N1CCC[C@H]1C(=O)N1CCC[C@H]1C(=O)N[C@@H](CO)C(N)=O [Example 224] (H-Y[Aib]EGT[αMePhe(2-F)]TSDYSI[Aib]LDEK([AEEA-AEEA-γGlu-C20 diacid])AQ[Aib]EFI[dE]YLIEGGPSSGAPPPS-NH2)
EC50 [1]: 0.0545 nM
Ki (human Gcg receptor): 627 nM
Ki (human GIP receptor): 0.0482 nM
Ki (human GLP-1R): 6.86 nM
EC50 [2]: 0.0349 nM

CC[C@H](C)[C@H](NC(=O)[C@H](CC(C)C)NC(=O)[C@H](Cc1ccc(O)cc1)NC(=O)[C@@H](CCC(=O)O)NC(=O)[C@@H](NC(=O)[C@H](Cc1ccccc1)NC(=O)[C@H](CCC(=O)O)NC(=O)C(C)(C)NC(=O)[C@H](CCC(N)=O)NC(=O)[C@H](C)NC(=O)[C@H](CCCCNC(=O)COCCOCCNC(=O)COCCOCCNC(=O)CC[C@H](NC(=O)CCCCCCCCCCCCCCCCCCC(=O)O)C(=O)O)NC(=O)[C@H](CCC(=O)O)NC(=O)[C@H](CC(=O)O)NC(=O)[C@H](CC(C)C)NC(=O)C(C)(C)NC(=O)[C@@H](NC(=O)[C@H](CO)NC(=O)[C@H](Cc1ccc(O)cc1)NC(=O)[C@H](CC(=O)O)NC(=O)[C@H](CO)NC(=O)[C@@H](NC(=O)[C@](C)(Cc1ccccc1)NC(=O)[C@@H](NC(=O)CNC(=O)[C@H](CCC(=O)O)NC(=O)C(C)(C)NC(=O)[C@@H](N)Cc1ccc(O)cc1)[C@@H](C)O)[C@@H](C)O)[C@@H](C)CC)[C@@H](C)CC)C(=O)N[C@@H](CCC(=O)O)C(=O)NCC(=O)NCC(=O)N1CCC[C@H]1C(=O)N[C@@H](CO)C(=O)N[C@@H](CO)C(=O)NCC(=O)N[C@@H](C)C(=O)N1CCC[C@H]1C(=O)N1CCC[C@H]1C(=O)N1CCC[C@H]1C(=O)N[C@@H](CO)C(N)=O [Example 225] (H-Y[Aib]EGT[αMeF]TSDYSI[Aib]LDEK([AEEA-AEEA-γGlu-C20 diacid])AQ[Aib]EFI[dE]YLIEGGPSSGAPPPS-NH2)
EC50 [1]: 0.101 nM
Ki (human Gcg receptor): 714 nM
Ki (human GIP receptor): 0.0622 nM
Ki (human GLP-1R): 8.79 nM
EC50 [2]: 0.067 nM
